Molecular target: T1, UDP-N-acetylmuramoyl-tripeptide--D-alanyl-D-alanine ligase (Streptococcus pneumoniae (strain ATCC BAA-255 / R6), UniProt Q8DNV6)
T1 sequence (Q8DNV6 whole entry): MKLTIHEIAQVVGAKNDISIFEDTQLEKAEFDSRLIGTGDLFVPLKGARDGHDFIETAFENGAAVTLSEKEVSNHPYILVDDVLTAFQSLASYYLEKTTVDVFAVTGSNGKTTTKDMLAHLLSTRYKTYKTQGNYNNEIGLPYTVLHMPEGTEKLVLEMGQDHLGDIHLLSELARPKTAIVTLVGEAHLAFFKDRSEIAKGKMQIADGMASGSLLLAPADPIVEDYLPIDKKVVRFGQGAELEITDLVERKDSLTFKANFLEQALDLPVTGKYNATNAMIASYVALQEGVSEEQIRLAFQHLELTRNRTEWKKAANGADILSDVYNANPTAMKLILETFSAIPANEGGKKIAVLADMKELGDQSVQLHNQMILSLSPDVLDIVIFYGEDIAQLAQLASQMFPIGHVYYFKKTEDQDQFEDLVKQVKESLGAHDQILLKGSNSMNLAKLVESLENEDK
Assay: Inhibition Assay
From the text: Inhibition of D-Ala-D-Ala adding enzyme (MurF) from Streptococcus pneumoniase.

Work on `N#Cc1c(NC(=O)c2cc(S(=O)(=O)C3CCOCC3)ccc2Cl)sc2c1CCC2` [MurF inhibitor, 3] yielded an IC50 of 9 µM.
`N#Cc1c(NC(=O)c2cc(S(=O)(=O)NCCCCO)ccc2Cl)sc2c1CCC2` [MurF inhibitor, 4] showed an IC50 of 22 µM.
Work on `N#Cc1c(NC(=O)c2cc(S(=O)(=O)N3CCCCC3)ccc2Cl)sc2c1CCCC2` [MurF inhibitor, 5] yielded an IC50 of 2.5 µM.
`N#Cc1c(NC(=O)c2cc(S(N)(=O)=O)ccc2Cl)sc2c1CCC2` [MurF inhibitor, 6] was tested, and the IC50 was 78 µM.
Work on `CCN(CC)S(=O)(=O)c1ccc(Cl)c(C(=O)Nc2sccc2C#N)c1` [MurF inhibitor, 12] yielded an IC50 of 151 µM.
Compound `CCN(CC)S(=O)(=O)c1ccc(Cl)c(C(=O)Nc2sc(Br)cc2C#N)c1` [MurF inhibitor, 13] has an IC50 of 12.6 µM.
`N#Cc1cc(CCc2ccccn2)sc1NC(=O)c1cc(S(=O)(=O)N2CCOCC2)ccc1Cl` [MurF inhibitor, 14] showed an IC50 of 6 µM.
In the case of `CCN(CC)S(=O)(=O)c1cc(C(=O)Nc2sc3c(c2C#N)CCC(c2ccc(O)cc2)C3)c(Cl)cc1Cl` (stereo not drawn) [MurF inhibitor, 15], the IC50 is reported as 0.07 µM.
